Source: ChEMBL document CHEMBL1201862, “PubChem BioAssay data set” (2004)
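A five-concentration, 48-hour dose response in 96-well plates underlies each endpoint, interpolated linearly between surrounding concentrations. Abbreviation: GI50, concentration required for 50% inhibition of growth.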 The source made the active and inactive calls. Cut-off read from the data, not from the text of the source: active = GI50 up to about 1.1 µM and inactive = higher.

Experiments:
Assay in all cases: DTP human tumour cell line panel, 48 h
[1] = test system: SF-268
[2] = test system: SNB-19
[3] = test system: CAKI-1
[4] = test system: T47D
[5] = test system: HL-60
[6] = test system: MDA-MB-231
[7] = test system: MCF7
[8] = test system: OVCAR-3
[9] = test system: HT-29
[10] = test system: LOX IMVI
[11] = test system: Hs-578T
[12] = test system: SK-MEL-28
[13] = test system: MDA-MB-435
[14] = test system: ACHN
[15] = test system: A549
[16] = test system: DU-145
[17] = test system: SR

Compound | GI50 [1] | GI50 [2] | GI50 [3] | GI50 [4] | GI50 [5] | GI50 [6] | GI50 [7] | GI50 [8] | GI50 [9] | GI50 [10] | GI50 [11] | GI50 [12] | GI50 [13] | GI50 [14] | GI50 [15] | GI50 [16] | GI50 [17]
COc1ccc(C2C3=C(COC3=O)Oc3cc4c(cc32)OCO4)cc1OC (stereo not drawn) | 6.17 µM (inactive) | 0.716 µM (active) | 2.82 µM (inactive) | 10.1 µM (inactive) | 0.208 µM (active) | 3.4 µM (inactive) | 0.408 µM (active) | 1.38 µM (inactive) | 0.395 µM (active) | 0.65 µM (active) | 0.408 µM (active) | 1.16 µM (inactive) | 0.123 µM (active) | 1.82 µM (inactive) | 1.27 µM (inactive) | 1.81 µM (inactive) | 
CCOP1(=O)C=C(Sc2ccc([N+](=O)[O-])cc2[N+](=O)[O-])C(C)(C)O1 (stereo not drawn) | 17.6 µM (inactive) | 27.6 µM (inactive) | 11.7 µM (inactive) | 14.6 µM (inactive) | 3.41 µM (inactive) |  | 3.99 µM (inactive) | 11.6 µM (inactive) | 8.39 µM (inactive) | 3.83 µM (inactive) | 26.7 µM (inactive) | 16.2 µM (inactive) | 11.4 µM (inactive) | 14.5 µM (inactive) | 19.9 µM (inactive) | 13.4 µM (inactive) | 3.59 µM (inactive)
COC(=O)c1sc2nc(Nc3ccccc3)/c(=N\c3ccccc3)sc2c1C | 57.3 µM (inactive) | 36.6 µM (inactive) | 58.6 µM (inactive) | > 100 µM (inactive) | > 100 µM (inactive) | > 100 µM (inactive) |  |  | > 100 µM (inactive) | > 100 µM (inactive) | 27.7 µM (inactive) | > 100 µM (inactive) | > 100 µM (inactive) | 32.7 µM (inactive) | 65.8 µM (inactive) | > 100 µM (inactive) | 47.6 µM (inactive)
COc1ccccc1NC(=O)O/N=C(/Cl)C(C)C | 16.6 µM (inactive) | 30.9 µM (inactive) |  | 21 µM (inactive) | 1.64 µM (inactive) | 7.19 µM (inactive) | > 10 µM (inactive) | 6.19 µM (inactive) | 3.49 µM (inactive) | 2.28 µM (inactive) | 24.9 µM (inactive) | 13.6 µM (inactive) |  | 5.92 µM (inactive) | 18.2 µM (inactive) | 18.8 µM (inactive) | 1.91 µM (inactive)
COc1ccc(CNc2nc(NC3CCCCC3)nc(NC3CCCCC3)n2)cc1 | 6.46 µM (inactive) | > 100 µM (inactive) | 5.14 µM (inactive) | 3.41 µM (inactive) | 4.88 µM (inactive) | 3.44 µM (inactive) | 3.78 µM (inactive) | 11.3 µM (inactive) | 2.61 µM (inactive) | 1.79 µM (inactive) | 7.29 µM (inactive) | 20.6 µM (inactive) | 21.8 µM (inactive) | 5.35 µM (inactive) | 5.38 µM (inactive) | 5.6 µM (inactive) | 
CC(C)(C)OC(=O)NCCCCCCC(=O)Cc1ccccc1 | > 100 µM (inactive) | > 100 µM (inactive) | > 100 µM (inactive) | > 100 µM (inactive) |  | > 100 µM (inactive) | > 100 µM (inactive) | > 100 µM (inactive) | > 100 µM (inactive) | > 100 µM (inactive) |  | > 100 µM (inactive) | > 100 µM (inactive) | > 100 µM (inactive) | > 100 µM (inactive) | > 100 µM (inactive) | > 100 µM (inactive)
COC(=O)C1=C(C)NC2(C)OC(C)(O)C(C(C)=O)C12C(C)=O (stereo not drawn) | 28.1 µM (inactive) | > 100 µM (inactive) | > 100 µM (inactive) | > 100 µM (inactive) | > 100 µM (inactive) | 20.7 µM (inactive) | > 100 µM (inactive) | > 100 µM (inactive) | 81.3 µM (inactive) | 89.5 µM (inactive) | 25.4 µM (inactive) | 38.5 µM (inactive) | > 100 µM (inactive) | 70.6 µM (inactive) | > 100 µM (inactive) | > 100 µM (inactive) | 
O=C1/C(=C/c2ccc(Cl)cc2)NC(=S)N1CN1CCCCC1 | 20.5 µM (inactive) | 17.7 µM (inactive) |  |  |  | 49.9 µM (inactive) | 29.2 µM (inactive) | 36.7 µM (inactive) | 15.8 µM (inactive) | 37.8 µM (inactive) | 21.5 µM (inactive) | 61.2 µM (inactive) | 45.5 µM (inactive) | 24.6 µM (inactive) | 34.1 µM (inactive) | 45.8 µM (inactive) | 34.8 µM (inactive)
CC(=O)OCC12C(OC(C)=O)C[C@@H](C)C3(CC(c4ccoc4)OC3=O)C1CCC(OC(C)=O)C21CO1 (stereo partly drawn) | > 100 µM (inactive) | > 100 µM (inactive) | > 100 µM (inactive) | > 100 µM (inactive) | > 100 µM (inactive) | > 100 µM (inactive) | > 100 µM (inactive) | > 100 µM (inactive) | > 100 µM (inactive) | > 100 µM (inactive) | > 100 µM (inactive) | > 100 µM (inactive) | > 100 µM (inactive) | > 100 µM (inactive) | > 100 µM (inactive) | > 100 µM (inactive) | 
CN1[C@@H]2CCCC[C@H]2N(C)P1(=O)C(O)/C=C/c1ccccc1 (stereo partly drawn) | > 100 µM (inactive) | > 100 µM (inactive) | > 100 µM (inactive) | > 100 µM (inactive) | > 100 µM (inactive) | > 100 µM (inactive) | > 100 µM (inactive) | > 100 µM (inactive) | > 100 µM (inactive) | > 100 µM (inactive) | > 100 µM (inactive) | > 100 µM (inactive) | > 100 µM (inactive) | > 100 µM (inactive) | > 100 µM (inactive) | > 100 µM (inactive) | 
O=C1CNC(=O)/C(=C/c2c[nH]c3ccccc23)N1 | > 100 µM (inactive) | > 100 µM (inactive) | > 100 µM (inactive) | > 100 µM (inactive) | 36.3 µM (inactive) |  | > 100 µM (inactive) | > 100 µM (inactive) | > 100 µM (inactive) | > 100 µM (inactive) | > 100 µM (inactive) | > 100 µM (inactive) | > 100 µM (inactive) | > 100 µM (inactive) | > 100 µM (inactive) | > 100 µM (inactive) | 
CC1(C)C=Cc2c(cc(O)c3c(=O)c4cc(Cl)ccc4[nH]c23)O1 | 3.86 µM (inactive) | 2.62 µM (inactive) | 3.94 µM (inactive) | 3.69 µM (inactive) | 2.84 µM (inactive) | 3.33 µM (inactive) | 2.88 µM (inactive) | 0.469 µM (active) | 2.4 µM (inactive) | 3.29 µM (inactive) | 0.161 µM (active) | 4 µM (inactive) | 3.35 µM (inactive) | 2.42 µM (inactive) | 3.1 µM (inactive) |  | 3.24 µM (inactive)
COC(=O)CN1C(=O)C2(C(=O)OC)OC1(c1ccc([N+](=O)[O-])cc1)C1C(=O)N(c3ccccc3)C(=O)C12 (stereo not drawn) | > 100 µM (inactive) | > 100 µM (inactive) | > 100 µM (inactive) | > 100 µM (inactive) | > 100 µM (inactive) | > 100 µM (inactive) |  |  | > 100 µM (inactive) | > 100 µM (inactive) | > 100 µM (inactive) | > 100 µM (inactive) | > 100 µM (inactive) | > 100 µM (inactive) | > 100 µM (inactive) | > 100 µM (inactive) | 
CC1=NN(c2nc(N)nc(CSc3nc4n(c(=S)n3)CCN4)n2)C(C)(C)C1 | 15.3 µM (inactive) | 37.9 µM (inactive) | 25.2 µM (inactive) | 21.7 µM (inactive) | > 100 µM (inactive) | 29.6 µM (inactive) | 51.5 µM (inactive) |  | > 100 µM (inactive) | 43.6 µM (inactive) | 15.6 µM (inactive) | > 100 µM (inactive) | > 100 µM (inactive) | 44.9 µM (inactive) |  |  | > 100 µM (inactive)
CCOC(=O)/C(=C\NC(C)(C)C)c1nc2ccccc2[nH]1 | 23.7 µM (inactive) | 39.3 µM (inactive) | 29.2 µM (inactive) |  | 13.2 µM (inactive) |  | 18.6 µM (inactive) | 17.5 µM (inactive) | 17.9 µM (inactive) | 21.9 µM (inactive) | 19.6 µM (inactive) | 16.4 µM (inactive) | 20 µM (inactive) | 20.4 µM (inactive) | 29.4 µM (inactive) | 29.9 µM (inactive) | 12.7 µM (inactive)
CN1CCN(c2ncc3c(n2)sc2c(=O)n(-c4ccccc4)cnc23)CC1 | > 100 µM (inactive) | > 100 µM (inactive) | > 100 µM (inactive) | > 100 µM (inactive) |  | > 100 µM (inactive) |  | > 100 µM (inactive) | > 100 µM (inactive) | > 100 µM (inactive) | > 100 µM (inactive) | > 100 µM (inactive) | > 100 µM (inactive) | > 100 µM (inactive) | > 100 µM (inactive) | > 100 µM (inactive) | > 100 µM (inactive)
O=C1c2ccc3c4ccc5c6c(ccc(c7ccc(c2c37)C(=O)N1CCN1CCCCC1)c64)C(=O)N(CCN1CCCCC1)C5=O | > 100 µM (inactive) | > 100 µM (inactive) | > 100 µM (inactive) | > 100 µM (inactive) | > 100 µM (inactive) |  | > 100 µM (inactive) | > 100 µM (inactive) | > 100 µM (inactive) | > 100 µM (inactive) | > 100 µM (inactive) | > 100 µM (inactive) | > 100 µM (inactive) | > 100 µM (inactive) | > 100 µM (inactive) | > 100 µM (inactive) | > 100 µM (inactive)
c1cc2c(cc1NC1=NCCO1)CCC2 | > 10 µM (inactive) | 0.0869 µM (active) |  | > 10 µM (inactive) | 5.61 µM (inactive) |  | > 10 µM (inactive) | > 10 µM (inactive) | > 10 µM (inactive) | > 10 µM (inactive) | 1.03 µM (active) | > 10 µM (inactive) | 8.04 µM (inactive) |  | > 10 µM (inactive) |  | > 10 µM (inactive)
